Results taken from patent publication US5521167A, “Cyclopentanperhydrophenanthren-17β-(hydroxy or alkoxy)-17α-(Aryl or heterocyclyl)-3β-derivatives active on the cardiovascular system, and pharmaceutical compositions containing same” (Sigma-Tau Industrie Farmceutiche Riunite S.p.A., priority 1992, dated 1996).

Tests used:
Na^+,K^+ -ATPase [1] = target: T1, Na^+,K^+ -ATPase (Canis lupus familiaris, UniProt P50997); assay: displacement of the specific ^3 H-ouabain binding from the purified Na^+,K^+ -ATPase receptor
T1 construct: Na^+,K^+ -ATPase receptor purified according to Jorghensen; from tissue
Text: (§1) To test the affinity for the receptor site of the Na^+,K^+ -ATPase and the agonist or antagonist activity on the enzyme, the following tests were used: a) displacement of the specific ^3 H-ouabain binding from the Na^+,K^+ -ATPase receptor purified according to Jorghensen (Jorghensen P., BBA, 1974, 356, 36) and Erdmann ( Erdmann E. et al., Arzneim. Forsh., 1984, 34, 1314); b) inhibition of the activity of the purified Na^+,K^+ -ATPase measured as % of hydrolysis of ^32 P-ATP in presence and in absence of the tested compound (Doucet A. et al., Am. J. Physiol., 1986, 251, F851). The ability of these compounds to lower blood pressure in adult hypertensive MHS rats was tested according to the following scheme: systolic blood pressure (SBP) and heart rate (HR) were measured by an indirect tail-cuff method in three-month old hypertensive MHS rats before starting with the treatment (basal values). The rats were then subdivided in two groups of 7 animals each, one receiving the compound and the other, the control group, receiving only the vehicle. The compound was orally daily given, suspended in Methocel 0.5% (w/v), for ten days. SBP and HR were measured daily 6 and 24 hours after the treatment.

Na^+,K^+ -ATPase [2] = target: T1, Na^+,K^+ -ATPase; assay: inhibition of the activity of the purified Na^+,K^+ -ATPase measured as % of hydrolysis of ^32 P-ATP; type: biochemical
Text: as §1

hypertensive MHS rats = assay: systolic blood pressure and heart rate in hypertensive MHS rats (indirect tail-cuff, ten-day oral treatment); type: in vivo, rat; conditions: 20 mg/Kg/os daily for ten days, in METHOCEL 0.5% w/v, 7 rats; for SYSTOLIC BLOOD PRESSURE FALL IN SPONTANEOUS HYPERTENSIVE RATS (MHS), SBP: controls 171 +/- 4.5; for HR: controls 384 +/- 11.0
Text: as §1
After ten-day treatment, washout was started for at least two days, to verify whether the treatment maintained SBP low or reestablished the basal values.

[3] = ^3 H-ouabain displacement, purified Na^+,K^+ -ATPase, read-out: Binding ^3 H-Ouab. Displacement log IC50 (converted)
[4] = hydrolysis of ^32 P-ATP, purified Na^+,K^+ -ATPase, read-out: Inhibitory Activity log IC50 (converted)

## C[C@]12CC[C@H](OCCN3CCCC3)C[C@@H]1CC[C@@H]1[C@@H]2CC[C@@]2(C)[C@H]1CC[C@@]2(OCCN1CCCC1)c1ccoc1 [Comp. I-ak, 3β, 17β-Bis(2-(1-pyrrolidinyl)ethoxy)-17α-(3-furyl)-androstane]
Na^+,K^+ -ATPase [1]; [3]
  IC50: 398 nM
Na^+,K^+ -ATPase [2]
  IC50: 5010 nM

## C[C@]12CC[C@H](OCCN3CCCC3)C[C@H]1CC[C@@H]1[C@@H]2CC[C@@]2(C)[C@H]1CC[C@@]2(OCCN1CCCC1)c1ccoc1 [Comp. I-ad, 3β17β-Bis(2-(1-pyrrolidinyl)ethoxy)-17α-(3-furyl)-5β-androstane]
Na^+,K^+ -ATPase [1]; [3]
  IC50: 398 nM
Na^+,K^+ -ATPase [2]
  IC50: 3160 nM

## C[C@]12CC[C@H](OCCOCCN3CCCC3)C[C@@H]1CC[C@@H]1[C@@H]2CC[C@@]2(C)[C@H]1CC[C@@]2(OCCN)c1ccoc1 [Comp. I-am, 3β-(2-(2-(1-Pyrrolidinyl)ethoxy)ethoxy)-17β-(2-aminoethoxy)-17α-(3-furyl)-androstane]
Na^+,K^+ -ATPase [1]; [3]
  IC50: 200 nM
Hypertensive MHS rats
  SYSTOLIC BLOOD PRESSURE FALL IN SPONTANEOUS HYPERTENSIVE RATS (MHS), SBP: 153 +/- 5.1 mm Hg
  HR: 378 +/- 8.5 beats/min.
Na^+,K^+ -ATPase [2]; [4]
  IC50: 1580 nM

## C[C@]12CC[C@H](OCCCN)C[C@@H]1CC[C@@H]1[C@@H]2CC[C@@]2(C)[C@H]1CC[C@@]2(O)c1ccoc1 [Comp. I-ai, 3β-(3-Aminopropoxy)-17α-(3-furyl)-androstan-17β-ol]
Na^+,K^+ -ATPase [1]
  IC50: 251 nM
Na^+,K^+ -ATPase [2]; [4]
  IC50: 1580 nM

## C[C@]12CC[C@H](OCCOCCN3CCCC3)C[C@@H]1CC[C@@H]1[C@@H]2CC[C@@]2(C)[C@H]1CC[C@@]2(OCCN1CCCC1)c1ccoc1 [Comp. I-an, 3β-(2-(2-(1-Pyrrolidinyl)ethoxy)ethoxy)-17β-(2-(1-pyrrolidinyl)ethoxy)-17α-(3-furyl)-androstane]
Hypertensive MHS rats
  SYSTOLIC BLOOD PRESSURE FALL IN SPONTANEOUS HYPERTENSIVE RATS (MHS), SBP: 152 +/- 5.0 mm Hg
  HR: 375 +/- 9.0 beats/min.

## C[C@]12CC[C@H](OCCOCCN3CCCC3)C[C@@H]1CC[C@@H]1[C@@H]2CC[C@@]2(C)[C@H]1CC[C@@]2(O)c1ccoc1 [Comp. I-al, 3β-(2-(2(1-Pyrrolidinyl)ethoxyy)ethoxy)-17α-(3-furyl)-androstan-17β-ol]
Na^+,K^+ -ATPase [1]; [3]
  IC50: 501 nM
Na^+,K^+ -ATPase [2]; [4]
  IC50: 1580 nM

## C[C@]12CC[C@H](O)C[C@H]1CC[C@@H]1[C@@H]2CC[C@]2(C)[C@@H](c3ccoc3)CC[C@]12O [Ref. comp., 17β-(3-furyl)-5β-androstane-3β, 14β-diol, reference compound]
Na^+,K^+ -ATPase [1]
  IC50: 501 nM
Hypertensive MHS rats
  SYSTOLIC BLOOD PRESSURE FALL IN SPONTANEOUS HYPERTENSIVE RATS (MHS), SBP: 173 +/- 4.0 mm Hg
  HR: 380 +/- 10.0 beats/min.
Na^+,K^+ -ATPase [2]
  IC50: 2000 nM

## C[C@]12CC[C@H](OCCOCCN3CCCC3)C=C1CC[C@@H]1[C@@H]2CC[C@@]2(C)[C@H]1CC[C@@]2(OCCN)c1ccoc1 [Comp. I-aq, 3β-(2-(2-(1-Pyrrolidinyl)ethoxy)ethoxy)-17α-(2-aminoethoxy)-17α-(3-furyl)-androst-4-ene]
Na^+,K^+ -ATPase [1]; [3]
  IC50: 316 nM
Hypertensive MHS rats
  SYSTOLIC BLOOD PRESSURE FALL IN SPONTANEOUS HYPERTENSIVE RATS (MHS), SBP: 148 +/- 3.2 mm Hg
  HR: 388 +/- 12.0 beats/min.
Na^+,K^+ -ATPase [2]
  IC50: 2510 nM

## C[C@]12CC[C@H](SCCOCCN3CCCC3)C[C@@H]1CC[C@@H]1[C@@H]2CC[C@@]2(C)[C@H]1CC[C@@]2(OCCN1CCCC1)c1ccoc1 [Comp. I-ca, 3β-(2-(2-(1-Pyrrolidinyl)ethoxy)ethylthio)-17β-(2-(1-pyrrolidinyl)ethoxy)-17α-(3-furyl)-androstane]
Na^+,K^+ -ATPase [1]; [3]
  IC50: 316 nM
Na^+,K^+ -ATPase [2]; [4]
  IC50: 2000 nM

## C[C@]12CC[C@H](OCCOCCN3CCCC3)CC1=CC[C@@H]1[C@@H]2CC[C@@]2(C)[C@H]1CC[C@@]2(OCCN1CCCC1)c1ccoc1 [Comp. I-ay, 3β-(2-(2-(1-pyrrolidinyl)ethoxy)ethoxy)-17β-(2-(1-pyrrolidinyl)ethoxy)-17α-(3furyl)-androst-5-ene]
Na^+,K^+ -ATPase [1]; [3]
  IC50: 398 nM
Hypertensive MHS rats
  SYSTOLIC BLOOD PRESSURE FALL IN SPONTANEOUS HYPERTENSIVE RATS (MHS), SBP: 149 +/- 4.8 mm Hg
  HR: 395 +/- 10.0 beats/min.
Na^+,K^+ -ATPase [2]; [4]
  IC50: 1580 nM
